Molecules are shown by their SMILES. The source made the active and inactive calls. No cut-off for these calls is given here.

The target of test [1] is T1, Progesterone receptor (Homo sapiens, UniProt P06401).
T1 sequence (P06401 whole entry): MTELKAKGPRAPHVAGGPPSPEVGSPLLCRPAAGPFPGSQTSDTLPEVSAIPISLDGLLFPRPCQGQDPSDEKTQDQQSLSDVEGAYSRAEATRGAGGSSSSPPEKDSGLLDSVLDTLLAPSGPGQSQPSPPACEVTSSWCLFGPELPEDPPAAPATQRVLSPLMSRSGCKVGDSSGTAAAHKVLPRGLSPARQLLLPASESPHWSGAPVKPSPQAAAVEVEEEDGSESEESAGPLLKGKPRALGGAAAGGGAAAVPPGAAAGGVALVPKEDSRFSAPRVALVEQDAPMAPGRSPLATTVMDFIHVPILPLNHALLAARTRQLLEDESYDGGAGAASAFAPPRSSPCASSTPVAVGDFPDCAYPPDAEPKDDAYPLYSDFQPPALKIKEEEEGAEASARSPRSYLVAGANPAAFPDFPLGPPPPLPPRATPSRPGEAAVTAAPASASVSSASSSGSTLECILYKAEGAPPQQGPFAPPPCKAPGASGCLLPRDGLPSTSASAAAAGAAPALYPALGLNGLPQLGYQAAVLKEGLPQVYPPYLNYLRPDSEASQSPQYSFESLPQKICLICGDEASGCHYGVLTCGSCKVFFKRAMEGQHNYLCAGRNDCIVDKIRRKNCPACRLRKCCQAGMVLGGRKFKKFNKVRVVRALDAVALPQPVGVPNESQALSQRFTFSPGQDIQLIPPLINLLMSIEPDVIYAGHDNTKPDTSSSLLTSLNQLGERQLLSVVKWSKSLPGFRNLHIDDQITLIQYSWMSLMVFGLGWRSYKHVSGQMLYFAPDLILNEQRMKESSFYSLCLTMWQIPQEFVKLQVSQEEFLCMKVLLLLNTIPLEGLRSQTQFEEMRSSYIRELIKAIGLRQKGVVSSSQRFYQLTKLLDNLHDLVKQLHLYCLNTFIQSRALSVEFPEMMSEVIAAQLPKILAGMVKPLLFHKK
The experiment in a line: (§1) Agonist activity at progesterone receptor expressed in CHO cells by luciferase assay. The format is functional, cell-based.

For test [2], the target named is T1, Progesterone receptor. The experiment in a line: (§2) Inhibition of progesterone receptor expressed in CHO cells by luciferase assay. The format is cell-based.
In test [3] the target is T2, Progesterone receptor (Homo sapiens) (UniProt P06401).
T2 sequence (whole entry): T1 sequence (P06401 whole entry)
The test is described as §1. Type of test: functional, cell-based.

Test [4] deals with T2, Progesterone receptor (Homo sapiens). The description is as §2. The format is cell-based.

`O=C(N[C@H]1CCCN2c3cc(Cl)ccc3Oc3ccccc3[C@H]12)C(F)(F)F` returned an EC50 at Progesterone receptor [1] of 3 nM. Further, half-maximal inhibition at Progesterone receptor [2] (IC50) was put at 4.3 nM.
Consider `O=C(N[C@H]1CCCN2c3ccccc3Oc3ccccc3[C@H]12)C(F)(F)F`, for which the EC50 at Progesterone receptor [1] was determined as 222 nM. That is a sub-micromolar value.
`N[C@H]1CCCN2c3ccccc3Oc3ccccc3[C@H]12`: the result in test [3] and in test [4] was inactive.
On Progesterone receptor [1], `CC(=O)c1ccc2c(c1)N1CCC[C@H](NC(=O)C(F)(F)F)[C@H]1c1ccccc1O2` had an EC50 of 258 nM.
Molecule `O=C(N[C@H]1CCCN2c3cc(Cl)ccc3Oc3ccccc3[C@H]12)OCCl` returned an EC50 on Progesterone receptor [1] of 598 nM.
In the case of `CC(=O)N[C@H]1CCCN2c3cc(Cl)ccc3Oc3ccccc3[C@H]12`, the concentration giving a half-maximal response (EC50) at Progesterone receptor [1] was 4450 nM. In addition, half-maximal inhibition on Progesterone receptor [2] (IC50) required 193 nM.
The like results for `O=C(N[C@H]1CCCN2c3cc(Cl)ccc3Cc3ccccc3[C@H]12)C(F)(F)F` were, in that order, 2 nM and 26 nM.
On to `CCN[C@H]1CCCN2c3ccccc3Oc3ccccc3[C@H]12`, for which the result in test [3] and in test [4] was inactive.
At Progesterone receptor [1], `N=C(N[C@H]1CCCN2c3cc(Cl)ccc3Oc3ccccc3[C@H]12)C(F)(F)F` showed an EC50 of 10.3 nM. Moreover, 133 nM corresponded to half-maximal inhibition on Progesterone receptor [2] (IC50).
For the molecule `CC(C)CNC(=S)N[C@H]1CCCN2c3cc(Cl)ccc3Oc3ccccc3[C@H]12`, the outcome in test [3] was inactive. Besides, the IC50 against Progesterone receptor [2] was 314 nM.
Turning to `O=C(N[C@H]1CCCN2c3c(Cl)cccc3Oc3ccccc3[C@H]12)C(F)(F)F`, the concentration giving a half-maximal response (EC50) at Progesterone receptor [1] was found to be 19 nM. This lies in the double-digit nanomolar range.
As for `O=C(N[C@H]1CCCN2c3cc(Cl)c(Cl)cc3Oc3ccccc3[C@H]12)C(F)(F)F`, the midpoint of the response at Progesterone receptor [1], the EC50, lay at 38 nM. Half-maximal inhibition against Progesterone receptor [2] (IC50) required 318 nM.
As for `CC(=O)c1cccc2c1N1CCC[C@H](NC(=O)C(F)(F)F)[C@H]1c1ccccc1O2`, the midpoint of the response at Progesterone receptor [1], the EC50, lay at 0.96 nM.
The same measure, in the same setting: for `CN1c2ccccc2[C@@H]2[C@@H](NC(=O)C(F)(F)F)CCCN2c2cc(Cl)ccc21` the value was 9.8 nM; for `C=Cc1ccc2c(c1)N1CCC[C@H](NC(=O)C(F)(F)F)[C@H]1c1ccccc1O2`, above 1000 nM.
At Progesterone receptor [1], `FC(F)(F)C(=S)N[C@H]1CCCN2c3cc(Cl)ccc3Oc3ccccc3[C@H]12` had an EC50 of 1.3 nM.
Turning to `O=C(N[C@H]1CCCN2c3c(ccc(Cl)c3Cl)Oc3ccccc3[C@H]12)C(F)(F)F`, the half-maximal effective concentration (EC50) on Progesterone receptor [1] worked out at 1.6 nM.
The molecule `N[C@H]1CCCN2c3cc(Cl)ccc3Oc3ccccc3[C@H]12` came in with an EC50 on Progesterone receptor [1] of 513 nM. For the same molecule, the result in test [4] was inactive.
On Progesterone receptor [1], `O=C(NC1CCCN2c3cc(Cl)ccc3Oc3ccccc3C12)C(F)(F)F` (racemic) had an EC50 of 10.6 nM. On Progesterone receptor [2], this molecule came in with an IC50 of 43 nM.
On to `O=C(N[C@@H]1CCCN2c3cc(Cl)ccc3Oc3ccccc3[C@@H]12)C(F)(F)F` (racemic), for which the concentration giving a half-maximal response (EC50) at Progesterone receptor [1] turned out to be 54 nM.
For the molecule `O=C(N[C@H]1CCCN2c3cc(F)ccc3Oc3ccccc3[C@H]12)C(F)(F)F`, the concentration for a half-maximal effect (EC50) on Progesterone receptor [1] was determined as 198 nM. This molecule showed an IC50 at Progesterone receptor [2] of 730 nM.
In turn, `CC(C)CN[C@H]1CCCN2c3cc(Cl)ccc3Oc3ccccc3[C@H]12` yielded an EC50 at Progesterone receptor [1] of 1340 nM.
As to `C=Cc1cccc2c1N1CCC[C@H](NC(=O)C(F)(F)F)[C@H]1c1ccccc1O2`, the EC50 at Progesterone receptor [1] is 0.81 nM.
On Progesterone receptor [1], `O=C(N[C@H]1CCCN2c3cc(Cl)ccc3Sc3ccccc3[C@H]12)C(F)(F)F` gave an EC50 of 2.8 nM.
`CN(C(=O)C(F)(F)F)[C@H]1CCCN2c3cc(Cl)ccc3Oc3ccccc3[C@H]12`: a half-maximal effect at Progesterone receptor [1] (EC50) was put at 450 nM.
On to `O=C(N[C@H]1CCCN2c3ccc(Cl)cc3Oc3ccccc3[C@H]12)C(F)(F)F`, for which the EC50 at Progesterone receptor [1] was 993 nM. This molecule also showed a 50% inhibitory concentration (IC50) against Progesterone receptor [2] of 2220 nM.

These data come from ChEMBL document CHEMBL1141479 (Bioorg Med Chem Lett, 2008).
